Values after ≈ are worked out from the molar mass of the structure shown. Like-named read-outs stand apart in the source and are kept apart here.
Legend:
[1] = target: human (hACC2) (Homo sapiens, UniProt O00763); test: In vitro ACC inhibition assay (ADP-Glo), hACC2; assay type: biochemical; settings: 5 nM ACC2, 20 μM ATP, 20 μM acetyl-CoA
Protocol: The detailed procedure is as follows. […] 10 μL ADP glo reagent was added. […] 20 μL kinase detection reagent was added.

[2] = system: C. albicans; test: Antifungal Activity Assay (broth microtiter MIC), C. albicans; assay type: cell-based, Candida albicans; settings: Candida albicans, ATCC90028, 48 h
Outline: (§1)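 Susceptibility was determined by CLSI M27-A3 broth microdilution in RPMI 1640 buffered with MOPS. Growth inhibition was scored visually after 48 h.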

[3] = system: C. parapsilosis; test: Antifungal Activity Assay (broth microtiter MIC), C. parapsilosis; assay type: cell-based, Candida parapsilosis; settings: Lodderomyces parapsilosis, ATCC22019, 48 h
Outline: as §1

[4] = system: Botrtyis cinerea (Bc); test: Growth inhibition assay of fungal pathogens, Bc; assay type: cell-based; settings: 48 h
Outline: (§2)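 Percent inhibition derived at 48 hours from OD600 and visual scores versus 2% DMSO control, with media+DMSO blank as background. Spore inocula in 17% V8 medium were sized from 48 h growth curves; compounds tested at final 50/10/2 or 2/0.4/0.08 ppm.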

[5] = system: Diplodia maydis (Dm); test: Growth inhibition assay of fungal pathogens, Dm; assay type: cell-based; settings: Stenocarpella maydis, 48 h
Outline: as §2

[6] = system: Fusarium moniliforme (Fm); test: Growth inhibition assay of fungal pathogens, Fm; assay type: cell-based; settings: for IC90: Fusarium verticillioides, 48 h, read-out: Concentration at 90% Inhibition Fm
Outline: as §2

[7] = system: Fusarium virguliforme (Fv); test: Growth inhibition assay of fungal pathogens, Fv; assay type: cell-based; settings: 48 h
Outline: as §2

[8] = system: Rhizoctonia solani (Rs); test: Growth inhibition assay of fungal pathogens, Rs; assay type: cell-based; settings: 48 h
[9] = system: Septoria tritici (St); test: Growth inhibition assay of fungal pathogens, St; assay type: cell-based; settings: Zymoseptoria tritici, 48 h
Outline: as §2

[10] = Table 3a, ATCC 90028, 3 replicates, MIC recorded at 48 h, read-out: MIC, C. albicans ATCC 90028
[11] = Table 3b (additional results), ATCC 90028, 3 replicates, MIC recorded at 48 h, read-out: MIC, C. albicans ATCC 90028
[12] = Table 3a, ATCC 22019, 3 replicates, MIC recorded at 48 h, read-out: MIC, C. parapsilosis ATCC 22019
[13] = Table 3b (additional results), ATCC 22019, 3 replicates, MIC recorded at 48 h, read-out: MIC, C. parapsilosis ATCC 22019
[14] = Botrtyis cinerea, growth inhibition at 48 hours vs 2% DMSO control, read-out: Concentration at 90% Inhibition Bc
[15] = Botrtyis cinerea, growth inhibition vs 2% DMSO control at 48 hours, read-out: Concentration at 90% Inhibition Bc
[16] = Diplodia maydis, growth inhibition at 48 hours vs 2% DMSO control, read-out: Concentration at 90% Inhibition Dm
[17] = Diplodia maydis, growth inhibition vs 2% DMSO control at 48 hours, read-out: Concentration at 90% Inhibition Dm
[18] = Fusarium moniliforme, growth inhibition at 48 hours vs 2% DMSO control
[19] = Fusarium moniliforme, growth inhibition vs 2% DMSO control at 48 hours
[20] = growth inhibition at 48 hours vs 2% DMSO control, read-out: Concentration at 90% Inhibition Fv
[21] = growth inhibition vs 2% DMSO control at 48 hours, read-out: Concentration at 90% Inhibition Fv
[22] = mycelial plugs, growth inhibition at 48 hours vs 2% DMSO control, read-out: Concentration at 90% Inhibition Rs
[23] = mycelial plugs, growth inhibition vs 2% DMSO control at 48 hours, read-out: Concentration at 90% Inhibition Rs
[24] = Septoria tritici, growth inhibition at 48 hours vs 2% DMSO control, read-out: Concentration at 90% Inhibition St
[25] = Septoria tritici, growth inhibition vs 2% DMSO control at 48 hours, read-out: Concentration at 90% Inhibition St

Sequence of human (hACC2) (O00763 whole entry): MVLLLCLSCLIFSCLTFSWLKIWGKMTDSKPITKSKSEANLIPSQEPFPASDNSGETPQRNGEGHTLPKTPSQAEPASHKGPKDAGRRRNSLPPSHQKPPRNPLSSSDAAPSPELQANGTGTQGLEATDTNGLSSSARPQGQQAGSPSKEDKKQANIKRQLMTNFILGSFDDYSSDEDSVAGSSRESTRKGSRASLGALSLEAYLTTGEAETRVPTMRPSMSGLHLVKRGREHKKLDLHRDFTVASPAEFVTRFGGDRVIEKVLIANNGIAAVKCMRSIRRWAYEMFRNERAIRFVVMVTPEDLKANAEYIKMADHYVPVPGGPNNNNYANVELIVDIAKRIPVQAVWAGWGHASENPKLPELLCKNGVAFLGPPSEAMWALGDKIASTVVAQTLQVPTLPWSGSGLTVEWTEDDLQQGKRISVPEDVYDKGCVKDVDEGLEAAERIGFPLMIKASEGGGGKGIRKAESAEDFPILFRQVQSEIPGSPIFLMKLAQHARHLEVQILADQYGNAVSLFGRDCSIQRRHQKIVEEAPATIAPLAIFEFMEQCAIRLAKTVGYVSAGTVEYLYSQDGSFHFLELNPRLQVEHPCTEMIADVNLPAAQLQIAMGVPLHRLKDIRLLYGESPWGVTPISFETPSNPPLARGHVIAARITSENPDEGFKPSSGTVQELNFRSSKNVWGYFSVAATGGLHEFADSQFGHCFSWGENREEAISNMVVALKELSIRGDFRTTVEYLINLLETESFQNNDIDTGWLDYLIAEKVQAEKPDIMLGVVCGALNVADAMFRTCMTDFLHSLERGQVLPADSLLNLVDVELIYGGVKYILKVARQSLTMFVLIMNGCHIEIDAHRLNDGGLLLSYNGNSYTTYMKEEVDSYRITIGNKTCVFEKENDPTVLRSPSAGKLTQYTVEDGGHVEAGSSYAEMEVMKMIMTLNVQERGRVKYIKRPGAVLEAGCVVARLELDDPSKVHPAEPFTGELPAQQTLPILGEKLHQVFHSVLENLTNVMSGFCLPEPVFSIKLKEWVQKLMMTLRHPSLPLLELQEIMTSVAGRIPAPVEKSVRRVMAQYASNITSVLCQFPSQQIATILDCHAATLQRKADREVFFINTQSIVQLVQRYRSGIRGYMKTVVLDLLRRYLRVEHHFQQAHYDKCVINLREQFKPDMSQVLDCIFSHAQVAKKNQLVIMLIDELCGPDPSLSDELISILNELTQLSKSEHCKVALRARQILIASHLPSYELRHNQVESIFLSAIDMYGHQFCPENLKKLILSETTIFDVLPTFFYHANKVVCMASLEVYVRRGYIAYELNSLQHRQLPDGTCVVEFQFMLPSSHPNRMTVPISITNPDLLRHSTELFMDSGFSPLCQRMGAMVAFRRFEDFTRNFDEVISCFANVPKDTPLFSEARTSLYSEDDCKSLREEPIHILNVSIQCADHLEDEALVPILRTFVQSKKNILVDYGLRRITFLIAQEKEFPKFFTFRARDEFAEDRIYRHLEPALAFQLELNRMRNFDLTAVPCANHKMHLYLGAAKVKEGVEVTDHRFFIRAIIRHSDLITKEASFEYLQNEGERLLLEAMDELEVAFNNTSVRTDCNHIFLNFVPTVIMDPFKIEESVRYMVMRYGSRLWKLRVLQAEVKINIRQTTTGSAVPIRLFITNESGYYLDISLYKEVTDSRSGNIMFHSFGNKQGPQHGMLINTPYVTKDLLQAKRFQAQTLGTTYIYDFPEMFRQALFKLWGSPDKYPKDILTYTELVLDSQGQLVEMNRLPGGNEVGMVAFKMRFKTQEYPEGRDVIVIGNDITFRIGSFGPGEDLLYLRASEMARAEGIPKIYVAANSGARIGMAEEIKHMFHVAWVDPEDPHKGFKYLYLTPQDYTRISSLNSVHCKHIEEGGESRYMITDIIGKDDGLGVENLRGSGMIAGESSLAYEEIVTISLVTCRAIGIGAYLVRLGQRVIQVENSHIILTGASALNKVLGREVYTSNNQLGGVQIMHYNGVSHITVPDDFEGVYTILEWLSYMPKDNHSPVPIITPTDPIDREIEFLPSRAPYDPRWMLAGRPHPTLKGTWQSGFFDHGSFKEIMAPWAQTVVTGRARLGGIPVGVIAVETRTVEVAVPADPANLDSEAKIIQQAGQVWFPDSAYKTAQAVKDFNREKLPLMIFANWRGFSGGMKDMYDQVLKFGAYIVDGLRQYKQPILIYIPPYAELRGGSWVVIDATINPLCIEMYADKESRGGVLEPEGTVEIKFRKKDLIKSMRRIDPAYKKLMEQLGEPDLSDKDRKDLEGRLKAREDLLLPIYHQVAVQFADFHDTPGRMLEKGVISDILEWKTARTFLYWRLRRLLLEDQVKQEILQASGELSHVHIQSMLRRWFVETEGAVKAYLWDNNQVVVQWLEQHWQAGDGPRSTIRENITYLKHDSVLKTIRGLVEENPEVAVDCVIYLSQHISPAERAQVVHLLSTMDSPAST

COc1ccc(F)cc1[C@H](Cn1c(=O)n(C(C)(C)C(N)=O)c(=O)c2c(C)c(-n3nccn3)sc21)OC1CCC(=O)CC1 [Compound I-31, (R)-2-(1-(2-(5-fluoro-2-methoxyphenyl)-2-((4-oxocyclo-hexyl)oxy)ethyl)-5-methyl-2,4-dioxo-6-(2H-1,2,3-triazol-2-yl)-1,4-dihydrothieno[2,3-d]pyrimidin-3(2H)-yl)-2-methylpropanamide]
IC50 ([1]; Table 2a): 5 to 10 nM
IC50 ([1]; Table 2b, additional results): 5 to 10 nM
MIC [2, 10]: 0.25 to 1 µg/mL (≈ 0.418 to 1.67 µM)
MIC [2, 11]: 0.25 to 1 µg/mL (≈ 0.418 to 1.67 µM)
MIC [3, 12]: 1.1 to 2 µg/mL (≈ 1.84 to 3.34 µM)
MIC [3, 13]: 2.01 to 4 µg/mL (≈ 3.36 to 6.68 µM)
IC90 [4, 14]: 0.4 µg/mL (≈ 0.668 µM)
IC90 [4, 15]: 0.4 µg/mL (≈ 0.668 µM)
IC90 [5, 16]: 2 µg/mL (≈ 3.34 µM)
IC90 [5, 17]: 10 µg/mL (≈ 16.7 µM)
IC90 [6, 18]: 0.4 µg/mL (≈ 0.668 µM)
IC90 [6, 19]: 0.4 µg/mL (≈ 0.668 µM)
IC90 [7, 20]: 10 µg/mL (≈ 16.7 µM)
IC90 [7, 21]: > 50 µg/mL
IC90 [8, 22]: 2 µg/mL (≈ 3.34 µM)
IC90 [8, 23]: 2 µg/mL (≈ 3.34 µM)
IC90 [9, 24]: > 50 µg/mL
IC90 [9, 25]: > 50 µg/mL

COc1ccc(F)cc1[C@H](Cn1c(=O)n(C(C)(C)C(=O)NC(C)C)c(=O)c2c(C)c(-n3nccn3)sc21)OC1CCC(=O)CC1 [Compound I-32, (R)-2-(1-(2-(5-fluoro-2-methoxyphenyl)-2-((4-oxocyclo-hexyl)oxy)ethyl)-5-methyl-2,4-dioxo-6-(2H-1,2,3-triazol-2-yl)-1,4-dihydro-thieno[2,3-d]pyrimidin-3(2H)-yl)-N-isopropyl-2-methylpropanamide]
IC50 ([1]; Table 2a): 5 to 10 nM
IC50 ([1]; Table 2b, additional results): 5 to 10 nM
MIC ([2]; read-out: MIC, C. albicans ATCC 90028, Table 3a, 3 replicates, MIC recorded at 48 h): 0.06 to 0.24 µg/mL (≈ 0.0936 to 0.375 µM)
MIC ([2]; read-out: MIC, C. albicans ATCC 90028, Table 3b (additional results), 3 replicates, MIC recorded at 48 h): 0.06 to 0.249 µg/mL (≈ 0.0936 to 0.389 µM)
MIC ([3]; read-out: MIC, C. parapsilosis ATCC 22019, Table 3a, 3 replicates, MIC recorded at 48 h): 0.25 to 1 µg/mL (≈ 0.39 to 1.56 µM)
MIC ([3]; read-out: MIC, C. parapsilosis ATCC 22019, Table 3b (additional results), 3 replicates, MIC recorded at 48 h): 0.25 to 1 µg/mL (≈ 0.39 to 1.56 µM)
IC90 ([4]; read-out: Concentration at 90% Inhibition Bc, Botrtyis cinerea, growth inhibition at 48 hours vs 2% DMSO control): 0.08 µg/mL (≈ 0.125 µM)
IC90 ([4]; read-out: Concentration at 90% Inhibition Bc, Botrtyis cinerea, growth inhibition vs 2% DMSO control at 48 hours): 0.08 µg/mL (≈ 0.125 µM)
IC90 ([5]; read-out: Concentration at 90% Inhibition Dm, Diplodia maydis, growth inhibition at 48 hours vs 2% DMSO control): 0.08 µg/mL (≈ 0.125 µM)
IC90 ([5]; read-out: Concentration at 90% Inhibition Dm, Diplodia maydis, growth inhibition vs 2% DMSO control at 48 hours): 0.08 µg/mL (≈ 0.125 µM)
Concentration at 90% Inhibition Fm [6, 18]: AA (compound concentration of 0.08 ppm at 90% inhibition of fungal pathogens)
IC90 [6]: 0.08 µg/mL (≈ 0.125 µM)
IC90 ([7]; read-out: Concentration at 90% Inhibition Fv, Fusarium virguliforme, growth inhibition at 48 hours vs 2% DMSO control): 0.4 µg/mL (≈ 0.624 µM)
IC90 ([7]; read-out: Concentration at 90% Inhibition Fv, Fusarium virguliforme, growth inhibition vs 2% DMSO control at 48 hours): 0.4 µg/mL (≈ 0.624 µM)
IC90 ([8]; read-out: Concentration at 90% Inhibition Rs, Rhizoctonia solani, mycelial plugs, growth inhibition at 48 hours vs 2% DMSO control): 0.08 µg/mL (≈ 0.125 µM)
IC90 ([8]; read-out: Concentration at 90% Inhibition Rs, Rhizoctonia solani, mycelial plugs, growth inhibition vs 2% DMSO control at 48 hours): 0.08 µg/mL (≈ 0.125 µM)
IC90 ([9]; read-out: Concentration at 90% Inhibition St, Septoria tritici, growth inhibition at 48 hours vs 2% DMSO control): > 50 µg/mL
IC90 ([9]; read-out: Concentration at 90% Inhibition St, Septoria tritici, growth inhibition vs 2% DMSO control at 48 hours): > 50 µg/mL

COc1ccc(F)cc1[C@H](Cn1c(=O)n(C(C)(C)C(=O)N2CCCC2)c(=O)c2c(C)c(-n3nccn3)sc21)OC1CCC(=O)CC1 [Compound I-33, (R)-1-(2-(5-fluoro-2-methoxyphenyl)-2-((4-oxocyclo-hexyl)oxy)ethyl)-5-methyl-3-(2-methyl-1-oxo-1-(pyrrolidin-1-yl)propan-2-yl)-6-(2H-1,2,3-triazol-2-yl)thieno[2,3-d]pyrimidine-2,4(1H,3H)-dione]
IC50 ([1]; Table 2a): 10 to 40 nM
IC50 ([1]; Table 2b, additional results): 10 to 40 nM
MIC [2, 10]: 0.25 to 1 µg/mL (≈ 0.383 to 1.53 µM)
MIC [2, 11]: 0.25 to 1 µg/mL (≈ 0.383 to 1.53 µM)
MIC [3, 12]: 0.25 to 1 µg/mL (≈ 0.383 to 1.53 µM)
MIC [3, 13]: 1.01 to 2 µg/mL (≈ 1.55 to 3.06 µM)
IC90 [4, 14]: 0.4 µg/mL (≈ 0.613 µM)
IC90 [4, 15]: 0.4 µg/mL (≈ 0.613 µM)
IC90 [5, 16]: 0.4 µg/mL (≈ 0.613 µM)
IC90 [5, 17]: 0.4 µg/mL (≈ 0.613 µM)
IC90 [6, 18]: 0.08 µg/mL (≈ 0.123 µM)
IC90 [6, 19]: 0.08 µg/mL (≈ 0.123 µM)
IC90 [7, 20]: 0.4 µg/mL (≈ 0.613 µM)
IC90 [7, 21]: 0.4 µg/mL (≈ 0.613 µM)
IC90 [8, 22]: 0.4 µg/mL (≈ 0.613 µM)
IC90 [8, 23]: 0.4 µg/mL (≈ 0.613 µM)
IC90 [9, 24]: > 50 µg/mL
IC90 [9, 25]: > 50 µg/mL
